This note sets out measurements from patent EP4417607A1, “HETEROCYCLIC COMPOUND AS SOS1 INHIBITOR AND USES THEREOF” (Nanjing Zaiming Pharmaceutical Co., Ltd., priority 2021, dated 2023).

Series [1] relates to p-ERK pathway in H358 cells. Nature of the series: p-ERK pathway inhibition in H358 cells (Advanced phospho-ERK (Thr202/Tyr204) cellular kit, HTRF). Format: cell-based. A digest of the protocol:
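Serum-starved H358 cells (50000/well, overnight) treated with compound for 1 h at 37 °C, then lysed; phospho-ERK (Thr202/Tyr204) read by HTRF (665/620 nm ratio). Cell-free wells set 100% inhibition, untreated cells 0%; IC50 fitted from 8 concentrations by four-parameter curve.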
A general note: TR-FRET usually uses a lanthanide donor and a delayed reading to cut background.

Series [2] is described as follows: Pharmacokinetics in mice after single intragastric or intravenous administration. Format: in vivo. The settings on record: female, BALB/c nude, mouse, plasma. As for the experimental part: Healthy adult female BALB/c nude mice were evenly divided into groups of 3 mice per group. 3 mice were administered intragastrically, and 3 mice were administered intravenously. The mice were purchased from Beijing Vital River Laboratory Animal Technology Co., Ltd., animal production license number: SCXK (Zhejiang) 2019-0001.
A certain amount of the compound of the present invention was weighed and dissolved in 5% DMSO + 20% PG + 5% anhydrous ethanol + 10% solutol + 60% water to prepare 5 mg/mL for intragastric administration. A certain amount of the compound of the present invention was weighed and dissolved in 1% DMSO + 4% PG + 1% anhydrous ethanol + 2% solutol + 92% water to prepare 0.5 mg/mL for intravenous injection.
Intragastric administration group: BALB/c nude mice were fasted overnight and then intragastrically administered the compound at a dose of 50 mg/kg and a volume of 10 mL/kg.
Intravenous administration group: BALB/c nude mice were fasted overnight and then intravenously administered the compound at a dose of 3 mg/kg and a volume of 6 mL/kg.
After intragastric administration or intravenous administration, 40 µL of blood was collected from orbits of the mice at 5 min, 15 min, 30 min, 1 h, 2 h, 4 h, 6 h, 8 h, and 24 h after administration, anticoagulated with 5 µL of EDTA-K2, centrifuged at 12000 rpm at 4 °C for 5 min to separate the plasma, and stored at -20 °C.
Determination of plasma concentrations in mice after intragastric administration or intravenous administration of different concentrations of the test compounds: the sample was melted at room temperature and vortexed for 1 min; 10 µL of the sample was quantitatively transferred to a 2-mL 96-well plate; 50 µL of an internal standard solution (a solution of tolbutamide in acetonitrile) and 50 µL of a precipitant (acetonitrile:methanol 7:3) were added, and the plate was shaken (1000 rpm * 3 min); the mixture was centrifuged (4000 rpm * 15 min); 80 µL of the supernatant was transferred to a 2-mL 96-well plate; 80 µL of a diluent (water) was added; the mixture was shaken evenly (1000 rpm * 3 min), and 5 µL of the sample was analyzed. LC/MS/MS conditions: The mobile phase A was 0.1% aqueous formic acid solution. The mobile phase B was 0.1% formic acid in acetonitrile. The column was Waters T3 1.8 µm (2.1 mm * 30 mm). The column temperature was 40 °C.

A further series relates to H358 cells. Nature of the series: H358 cell proliferation inhibition (CellTiter-Glo luminescent cell viability assay). To be noted: 7 days. It is filed as cell-based. An outline of the steps: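 H358 cells seeded at 3000 cells/well in RPMI1640/10% FBS, treated with compound for 7 days at 37 °C/5% CO2. Viability read by CellTiter-Glo 3D luminescence, normalised to cell-free (100%) and compound-free (0%) controls; IC50 fitted from 8 concentrations by four-parameter curve.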

Setting [3] is: Homo sapiens, NCI-H358, 1 h compound incubation.
Setting [4] is: po, single intragastric administration, 50 mg/kg.
Setting [5] is: single intravenous administration, 3 mg/kg.

On to `COc1c(=O)n(C2(CF)CC2)cc2c(N[C@H](C)c3cccc(C(F)F)c3F)nc(C)nc12` [Example 1, (R)-4-((1-(3-(difluoromethyl)-2-fluorophenyl)ethyl)amino)-6-(1-(fluoromethyl)cyclopropyl)-8-methoxy-2-methylpyrido[4,3-d]pyrimidine-7(6H)-one], for which it took 20.7 nM to reach half-maximal inhibition in series [1] (setting [3]) (IC50). In series [2] (setting [4]), the AUC(0-t) (as a rule, the area under the concentration-time curve up to a stated or last time point) turned out to be 17800 ng·h/mL; the Cmax – broadly, the peak of the concentration-time curve – was 9430 ng/mL; the Tmax (commonly the time from dosing to the highest level) was found to be 24 min; the half-life (as a rule, how long it takes for the measured level to halve) is 60 min. Also, in series [2] (setting [5]), the AUC(0-t) was 619 ng·h/mL, the C0 was determined as 2960 ng/mL and the half-life is 30 min. Also, the Vd in series [2] (single intravenous administration, 3 mg/kg, read-out: Vss) came out at 3.8 L/kg. Also, the IC50 (usually the concentration that gives 50% inhibition) in the series on H358 cells (Homo sapiens, NCI-H358, 168 h) was 19.6 nM.

`Cc1nc(N[C@H](C)c2cccc(C(F)F)c2F)c2cn(C3(CF)CC3)c(=O)c(N3CCOC[C@@H]3CO)c2n1` [Example 135, 4-(((R)-1-(3-(difluoromethyl)-2-fluorophenyl)ethyl)amino)-6-(1-(fluoromethyl)cyclopropyl)-8-((S)-3-(hydroxymethyl)morpholinyl)-2-methylpyrido[4,3-d]pyrimidine-7(6H)-one]: the IC50 in series [1] (setting [3]) turned out to be 59 nM; in the series on H358 cells (Homo sapiens, NCI-H358, 168 h), 65.2 nM.

`Cc1nc(N[C@H](C)c2cccc(C(F)F)c2F)c2cn(C3(CF)CC3)c(=O)c(N3CCOC[C@@H]3CF)c2n1` [Example 136, 4-(((R)-1-(3-(difluoromethyl)-2-fluorophenyl)ethyl)amino)-6-(1-(fluoromethyl)cyclopropyl)-8-((R)-3-(fluoromethyl)morpholinyl)-2-methylpyrido[4,3-d]pyrimidine-7(6H)-one]: the half-maximal inhibitory concentration (IC50) in series [1] (setting [3]) came to 80.2 nM; in the series with H358 cells (Homo sapiens, NCI-H358, 168 h) it was 42.3 nM.

As to `Cc1nc(N[C@H](C)c2cccc(C(F)F)c2F)c2cn(N3CCOCC3)c(=O)c(-c3cnn4c3COCC4)c2n1` [Example 138, (R)-4-((1-(3-(difluoromethyl)-2-fluorophenyl)ethyl)amino)-8-(6,7-dihydro-4H-pyrazolo[5,1-c][1,4]oxazin-3-yl)-2-methyl-6-morpholinylpyrido[4,3-d]pyrimidine-7(6H)-one], the IC50 came out at 63.1 nM in series [1] (setting [3]) and 115 nM with H358 cells (Homo sapiens, NCI-H358, 168 h).

In the case of `Cc1nc(N[C@H](C)c2cccc(C(F)F)c2F)c2cn(C3(CF)CC3)c(=O)c(C3(O)CCOC3)c2n1` (stereo partly drawn) [Example 139, 4-(((R)-1-(3-(difluoromethyl)-2-fluorophenyl)ethyl)amino)-6-(1-(fluoromethyl)cyclopropyl)-8-(3-hydroxytetrahydrofuran-3-yl)-2-methylpyrido[4,3-d]pyrimidine-7(6H)-one], the IC50 in series [1] (setting [3]) was 81.2 nM; in the series on H358 cells (Homo sapiens, NCI-H358, 168 h), 86.6 nM.

For the compound `Cc1nc(N[C@H](C)c2cccc(C(F)F)c2F)c2cn(C3(CF)CC3)c(=O)c(N3CCN(C4CC4)CC3)c2n1` [Example 142, (R)-8-(4-cyclopropylpiperazin-1-yl)-4-((1-(3-(difluoromethyl)-2-fluorophenyl)ethyl)amino)-6-(1-(fluoromethyl)cyclopropyl)-2-methylpyrido[4,3-d]pyrimidine-7(6H)-one], the IC50 in series [1] (setting [3]) amounted to 43.7 nM; with H358 cells (Homo sapiens, NCI-H358, 168 h), 24.1 nM.

On to `Cc1nc(N[C@H](C)c2cccc(C(F)F)c2F)c2cn(C3(CF)CC3)c(=O)c(N3CCN(C4(C)COC4)CC3)c2n1` [Example 143], for which the IC50 in series [1] (setting [3]) is 34.8 nM; in the series with H358 cells (Homo sapiens, NCI-H358, 168 h), 15.8 nM.

Consider `Cc1nc(N[C@H](C)c2cccc(C(F)F)c2F)c2cn(C3(CF)CC3)c(=O)c(C3(O)CCN(C4COC4)CC3)c2n1` [Example 145, (R)-4-((1-(3-(difluoromethyl)-2-fluorophenyl)ethyl)amino)-6-(1-(fluoromethyl)cyclopropyl)-8-(4-hydroxy-1-(oxetan-3-yl)piperidin-4-yl)-2-methylpyrido[4,3-d]pyrimidine-7(6H)-one], for which the half-maximal inhibitory concentration (IC50) in series [1] (setting [3]) turned out to be 138 nM; in the series with H358 cells (Homo sapiens, NCI-H358, 168 h) it was 64.6 nM.

For `COC1(c2c(=O)n(C3(CF)CC3)cc3c(N[C@H](C)c4cccc(C(F)F)c4F)nc(C)nc23)COC1` [Example 150, (R)-4-((1-(3-(difluoromethyl)-2-fluorophenyl)ethyl)amino)-6-(1-(fluoromethyl)cyclopropyl)-8-(3-methoxyoxetan-3-yl)-2-methylpyrido[4,3-d]pyrimidine-7(6H)-one], the IC50 in series [1] (setting [3]) turned out to be 42.8 nM; in the series with H358 cells (Homo sapiens, NCI-H358, 168 h), 68.7 nM.

On to `Cc1nc(N[C@H](C)c2cccc(C(F)F)c2F)c2cn(C3(CF)CC3)c(=O)c(N3CCC4(CC3)COC4)c2n1` [Example 151, (R)-4-((1-(3-(difluoromethyl)-2-fluorophenyl)ethyl)amino)-6-(1-(fluoromethyl)cyclopropyl)-2-methyl-8-(2-oxa-7-azaspiro[3.5]nonan-7-yl)pyrido[4,3-d]pyrimidine-7(6H)-one], for which the IC50 in series [1] (setting [3]) is 41.7 nM; with H358 cells (Homo sapiens, NCI-H358, 168 h), 73.1 nM.

With `Cc1nc(N[C@H](C)c2cccc(C(F)F)c2F)c2cn(C3(CF)CC3)c(=O)c(N3CC4CC(C3)N4C3COC3)c2n1` [Example 152, 4-(((R)-1-(3-(difluoromethyl)-2-fluorophenyl)ethyl)amino)-6-(1-(fluoromethyl)cyclopropyl)-2-methyl-8-(6-(oxetan-3-yl)-3,6-diazabicyclo[3.1.1]heptan-3-yl)pyrido[4,3-d]pyrimidine-7(6H)-one], the IC50 came out at 76.3 nM in series [1] (setting [3]) and 13.6 nM in the series on H358 cells (Homo sapiens, NCI-H358, 168 h).

Regarding `COC1(C)CCN(c2c(=O)n(C3(CF)CC3)cc3c(N[C@H](C)c4cccc(C(F)F)c4F)nc(C)nc23)CC1` [Example 155], the IC50 is 59.8 nM in series [1] (setting [3]) and 124 nM with H358 cells (Homo sapiens, NCI-H358, 168 h).

As for `Cc1nc(N[C@H](C)c2cccc(C(F)F)c2F)c2cn(C3(CF)CC3)c(=O)c(N3CCC(N(C)C)CC3)c2n1` [Example 158], the IC50 in series [1] (setting [3]) stood at 145 nM; in the series with H358 cells (Homo sapiens, NCI-H358, 168 h), 12.5 nM.

Take `Cc1nc(N[C@H](C)c2cccc(C(F)F)c2F)c2cn(C3(CF)CC3)c(=O)c(N3CCC(N4CCCC4)CC3)c2n1` [Example 159]: the IC50 in series [1] (setting [3]) was found to be 138 nM; with H358 cells (Homo sapiens, NCI-H358, 168 h) it was 51.5 nM.

Take `COc1ccc(-c2c(=O)n(N3CCOCC3)cc3c(N[C@H](C)c4cccc(C#N)c4C)nc(C)nc23)cn1` [Example 162]: the IC50 in series [1] (setting [3]) was determined as 77.5 nM; with H358 cells (Homo sapiens, NCI-H358, 168 h), 96.5 nM.

As to `Cc1nc(N[C@H](C)c2cccc(C#N)c2C)c2cn(C3(CF)CC3)c(=O)c(N3CCOCC3(C)C)c2n1` [Example 171, (R)-3-(1-((8-(3,3-dimethylmorpholinyl)-6-(1-(fluoromethyl)cyclopropyl)-2-methyl-7-oxo-6,7-dihydropyrido[4,3-d]pyrimidin-4-yl)amino)ethyl)-2-methylbenzonitrile], the concentration for half-maximal inhibition (IC50) in series [1] (setting [3]) was 75.6 nM; with H358 cells (Homo sapiens, NCI-H358, 168 h) it was 52.7 nM.

Regarding `Cc1nc(N[C@H](C)c2cccc(C(F)F)c2F)c2cn(C3(CF)CC3)c(=O)c(N3CC4CC(C3)O4)c2n1` [Example 174], the half-inhibitory concentration (IC50) in series [1] (setting [3]) amounted to 20.4 nM; with H358 cells (Homo sapiens, NCI-H358, 168 h), 36.2 nM.

On to `[2H]C1([2H])COC[C@H](C)N1c1c(=O)n(C2(CF)CC2)cc2c(N[C@H](C)c3cccc(C(F)F)c3F)nc(C)nc12` [Example 175], for which the IC50 in series [1] (setting [3]) came out at 31 nM; with H358 cells (Homo sapiens, NCI-H358, 168 h) it was 36.2 nM.

On to `Cc1nc(N[C@H](C)c2cccc(C(F)F)c2F)c2cn(C3(CF)CC3)c(=O)c(-c3cnn4c3COCC4)c2n1` [Example 176], for which the IC50 was 126 nM in series [1] (setting [3]) and 132 nM in the series on H358 cells (Homo sapiens, NCI-H358, 168 h).

Turning to “(R)-4-((1-(3-(difluoromethyl)-2-fluorophenyl)ethyl)amino)-6-(1-(fluoromethyl)cyclopropyl)-8-(2-hydroxyprop-2-yl)-2-methylpyrido[4,3-d]pyrimidine-7(6H)-one [Example 144]”, the IC50 in series [1] (1 h compound incubation) worked out at 40 nM; in the series with H358 cells, 105 nM.
